From patent publication US20090226544A1, “Pharmaceutical Compound For Treating Inflammation, Pain, Arthritis And Spinitis, And Proliferating Osteoblastic Cell And Method For Producing Thereof” (priority 2005, published 2009)

Tests used:
Type in all cases: in vivo
SD male albino rats [1] = assay: Carrageenan-induced hind paw edema, Example 4 administered for 2 weeks (Experimental Example 5); conditions: dose 5 mg/kg; 2-week test; 2 h after carrageenan
SD male albino rats [2] = assay: as above; conditions: dose 5 mg/kg, 2-week test
Experimental: SD male albino rats weighing 150 to 170 g, which were fasted for 16 hours before experimental use, were used as test animals to induce edema by subcutaneously injecting 0.1 ml of a 1% type IV lambda carrageenan-saline solution as a […] to the subplantar of the right hind paw of each of the albino rats (Winter et al., 1962). The paw volume was measured with a plethysmometer (Ugo Basile, Italy) 0.5, 1, 2, 4 and 6 hours after injection of carrageenan and compared with the paw volume measured before injection of carrageenan for calculation of an increase (%) of paw volume. In addition, an increase (%) of paw volume for a control group was compared with increases (%) of paw volume for treatment groups for obtaining a reduction ratio (%) of paw volume. The pharmaceutical compositions prepared in Examples 1 through 4 were orally administered to the […] 30 minutes before injection of carrageenan. The extent of paw edema (or swelling) was obtained based on the edema enhancement rate and edema inhibition rate measured using the following relationship. […] Phenylbutazone was used as a positive control. In order to examine the inhibitory effect of the pharmaceutical composition prepared in Example 4 of the present invention on acute inflammation induced by carrageenan, […] Experimental Example 1 and the results are summarized in Table 4. […]

SD male albino rats [3] = assay: Carrageenan-induced hind paw edema, Example 4 at 30-600 mg/kg (Experimental Example 4)
Experimental: SD male albino rats weighing 150 to 170 g, which were fasted for 16 hours before experimental use, were used as test animals to induce edema by subcutaneously injecting 0.1 ml of a 1% type IV lambda carrageenan-saline solution as a […] to the subplantar of the right hind paw of each of the albino rats (Winter et al., 1962). The paw volume was measured with a plethysmometer (Ugo Basile, Italy) 0.5, 1, 2, 4 and 6 hours after injection of carrageenan and compared with the paw volume measured before injection of carrageenan for calculation of an increase (%) of paw volume. In addition, an increase (%) of paw volume for a control group was compared with increases (%) of paw volume for treatment groups for obtaining a reduction ratio (%) of paw volume. The pharmaceutical compositions prepared in Examples 1 through 4 were orally administered to the […] 30 minutes before injection of carrageenan. The extent of paw edema (or swelling) was obtained based on the edema enhancement rate and edema inhibition rate measured using the following relationship. […] Phenylbutazone was used as a positive control. In order to examine the inhibitory effect of the pharmaceutical composition prepared in Example 4 of the present invention on acute inflammation induced by carrageenan, […] Experimental Example 1 and the results are summarized in Table 4.

ICR male mice = assay: Analgesic effect test, acetic acid-induced writhing (Experimental Example 3); conditions: dose 50 mg/kg oral
Experimental: The pharmaceutical compositions prepared in Examples 1 through 4 were orally administered to ICR (Institute of Cancer Research) male mice weighing 25 to 28 g, which were fasted for 12 hours before experimental use. After 30 minutes of administration, 0.7% acetic acid-saline solution was intraperitoneally injected to the mice in a dose of […] per 10 g of body weight and from 5 minutes after administration, the number of writhings occurring to each mouse was counted for 10 minutes (Koster et al., 1959) and the results are summarized in Table 3. Phenylbutazone was used as a positive control.

SD male albino rats [4] = assay: Acute inflammation test by carrageenan-induced hind paw edema after 2 weeks of administration (Experimental Example 2); conditions: dose 50 mg/kg, 2-week test
Experimental: (§1) SD male albino rats weighing 150 to 170 g, which were fasted for 16 hours before experimental use, were used as test animals to induce edema by subcutaneously injecting 0.1 ml of a 1% type IV lambda carrageenan-saline solution as a […] to the subplantar of the right hind paw of each of the albino rats (Winter et al., 1962). The paw volume was measured with a plethysmometer (Ugo Basile, Italy) 0.5, 1, 2, 4 and 6 hours after injection of carrageenan and compared with the paw volume measured before injection of carrageenan for calculation of an increase (%) of paw volume. In addition, an increase (%) of paw volume for a control group was compared with increases (%) of paw volume for treatment groups for obtaining a reduction ratio (%) of paw volume. […] The extent of paw edema (or swelling) was obtained based on the edema enhancement rate and edema inhibition rate measured using the following relationship.

SD male albino rats [5] = assay: Acute inflammation test by carrageenan-induced hind paw edema, composition given 30 minutes before carrageenan (Experimental Example 1); conditions: dose 50 mg/kg oral
Experimental: as §1

| Structure (SMILES) | Increased percent of paw volume (%) (SD male albino rats [1]) | Increased percent of paw volume (%) (SD male albino rats [2]; 0.5 h after carrageenan) | reduction ratio (%) of paw volume vs control (SD male albino rats [2]; 0.5 h after carrageenan) [%] | Increased percent of paw volume (%) (SD male albino rats [2]; 1 h after carrageenan) | reduction ratio (%) of paw volume vs control (SD male albino rats [2]; 1 h after carrageenan) [%] | reduction ratio (%) of paw volume vs control (SD male albino rats [2]; 2 h after carrageenan) [%] | Increased percent of paw volume (%) (SD male albino rats [2]; 4 h after carrageenan) | reduction ratio (%) of paw volume vs control (SD male albino rats [2]; 4 h after carrageenan) [%] | Increased percent of paw volume (%) (SD male albino rats [2]; 6 h after carrageenan) | reduction ratio (%) of paw volume vs control (SD male albino rats [2]; 6 h after carrageenan) [%] | Increased percent of paw volume (%) (SD male albino rats [3]; 0.5 h after carrageenan) | reduction ratio (%) of paw volume vs control (SD male albino rats [3]; 0.5 h after carrageenan) [%] | Increased percent of paw volume (%) (SD male albino rats [3]; 1 h after carrageenan) | reduction ratio (%) of paw volume vs control (SD male albino rats [3]; 1 h after carrageenan) [%] | Increased percent of paw volume (%) (SD male albino rats [3]; 2 h after carrageenan) | reduction ratio (%) of paw volume vs control (SD male albino rats [3]; 2 h after carrageenan) [%] | Increased percent of paw volume (%) (SD male albino rats [3]; 4 h after carrageenan) | reduction ratio (%) of paw volume vs control (SD male albino rats [3]; 4 h after carrageenan) [%] | Increased percent of paw volume (%) (SD male albino rats [3]; 6 h after carrageenan) | reduction ratio (%) of paw volume vs control (SD male albino rats [3]; 6 h after carrageenan) [%] | also measured |
| --- | --- | --- | --- | --- | --- | --- | --- | --- | --- | --- | --- | --- | --- | --- | --- | --- | --- | --- | --- | --- | --- |
| O=C(O)COC(=O)Cc1ccccc1Nc1c(Cl)cccc1Cl [Aceclofenac, aceclofenac] | 19.7 ± 2.0 | 10.1 ± 1.4 | 62.6 | 15.1 ± 1.7 | 51.4 | 59.2 | 55.3 ± 3.9 | 29.4 | 61.0 ± 3.5 | 19.4 | 12.1 ± 2.6 | 34.8 | 12.1 ± 3.5 | 53.7 | 16.7 ± 3.0 | 58.7 | 36.9 ± 5.1 | 56.1 | 50.6 ± 3.9 | 31.5 |  |
| O=C(O)Cc1ccccc1Nc1c(Cl)cccc1Cl [Diclofenac, diclofenac] | 22.0 ± 2.0 | 12.0 ± 1.8 | 55.5 | 13.7 ± 1.4 | 55.6 | 54.4 | 49.2 ± 3.9 | 37.1 | 51.8 ± 4.0 | 31.50 | 9.6 ± 1.6 | 47.5 | 13.6 ± 2.6 | 48.0 | 17.7 ± 3.1 | 56.3 | 37.24 ± 5.9 | 55.7 | 34.89 ± 2.8 | 52.8 |  |
| CCCCC1C(=O)N(c2ccccc2)N(c2ccccc2)C1=O [Phenylbutazone, phenylbutazone] |  |  |  |  |  |  |  |  |  |  |  |  |  |  |  |  |  |  |  |  | Number of writhing (ICR male mice; counted for 10 minutes): 12.3 ± 0.9; Inhibition rate (%) (ICR male mice; writhing): 50.1%; Increased percent of paw volume (%) (SD male albino rats [4]; 1 h after carrageenan): 13.2 ± 0.8 %; Increased percent of paw volume (%) (SD male albino rats [4]; 2 h after carrageenan): 19.3 ± 2.4 %; Increased percent of paw volume (%) (SD male albino rats [4]; 4 h after carrageenan): 39.1 ± 5.0 %; Increased percent of paw volume (%) (SD male albino rats [4]; 6 h after carrageenan): 35.0 ± 2.4 %; Increased percent of paw volume (%) (SD male albino rats [5]; 1 h after carrageenan): 14.0 ± 0.9 %; Increased percent of paw volume (%) (SD male albino rats [5]; 2 h after carrageenan): 25.0 ± 3.7 %; Increased percent of paw volume (%) (SD male albino rats [5]; 4 h after carrageenan): 37.8 ± 4.3%; Increased percent of paw volume (%) (SD male albino rats [5]; 6 h after carrageenan): 35.0 ± 2.4 % |
